Reference: ChEMBL document CHEMBL4765450, “The components and activities analysis of a novel anticoagulant candidate dHG-5” (Eur J Med Chem, 2020)
Activity calls are given as the source filed them. The rule behind the calls is not given here.

Legend:
[1] = target: Coagulation factor XI (Homo sapiens) (UniProt P03951); assay: Inhibition of factor 11a (unknown origin) at IC50 using S-2366 as substrate preincubated for 1 min followed by chromogenic substrate addition and measured for 2 mins; settings: time 3.0 min
Sequence of Coagulation factor XI (Homo sapiens) (P03951 19-387 limits assumed): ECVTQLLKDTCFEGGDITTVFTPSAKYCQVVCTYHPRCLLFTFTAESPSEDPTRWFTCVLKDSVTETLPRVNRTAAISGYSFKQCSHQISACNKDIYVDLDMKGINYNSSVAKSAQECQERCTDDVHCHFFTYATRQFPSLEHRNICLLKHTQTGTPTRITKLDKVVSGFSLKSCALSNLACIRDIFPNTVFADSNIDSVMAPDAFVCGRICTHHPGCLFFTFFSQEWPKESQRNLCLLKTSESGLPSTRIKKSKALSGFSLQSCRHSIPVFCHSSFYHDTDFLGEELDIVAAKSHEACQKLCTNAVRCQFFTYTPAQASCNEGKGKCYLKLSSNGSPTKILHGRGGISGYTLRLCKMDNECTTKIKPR
Sequence of Coagulation factor XI (Homo sapiens) (P03951 388-625 limits assumed): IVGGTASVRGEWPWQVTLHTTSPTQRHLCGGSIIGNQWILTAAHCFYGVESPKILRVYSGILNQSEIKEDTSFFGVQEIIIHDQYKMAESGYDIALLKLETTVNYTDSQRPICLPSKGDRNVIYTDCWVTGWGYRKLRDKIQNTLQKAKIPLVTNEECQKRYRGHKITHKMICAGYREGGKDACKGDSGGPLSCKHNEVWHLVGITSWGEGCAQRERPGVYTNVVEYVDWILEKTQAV

Coagulation factor IX [2] = target: T1, Coagulation factor IX (Homo sapiens, UniProt P00740); assay: Inhibition of factor 9a (unknown origin) binding to immobilized biotinylated oHG-11 by biolayer interferometry relative to dHG-5
T1 sequence (P00740 47-191 limits assumed): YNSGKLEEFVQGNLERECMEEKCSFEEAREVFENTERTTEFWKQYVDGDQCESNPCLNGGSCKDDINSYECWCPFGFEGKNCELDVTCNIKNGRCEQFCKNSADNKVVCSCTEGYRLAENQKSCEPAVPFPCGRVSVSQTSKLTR
T1 sequence (P00740 227-461 limits assumed): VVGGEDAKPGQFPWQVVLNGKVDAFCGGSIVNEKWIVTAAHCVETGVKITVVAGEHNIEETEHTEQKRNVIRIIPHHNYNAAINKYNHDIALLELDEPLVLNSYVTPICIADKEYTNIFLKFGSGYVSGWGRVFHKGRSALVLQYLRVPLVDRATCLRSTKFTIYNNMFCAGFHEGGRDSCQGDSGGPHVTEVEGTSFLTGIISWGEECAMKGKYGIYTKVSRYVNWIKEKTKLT

[3] = target: Prothrombin (Homo sapiens) (UniProt P00734); assay: Inhibition of factor 2a (unknown origin) at IC50 preincubated for 1 min followed by chromogenic substrate addition and measured for 2 mins in presence of AT-III; settings: time 3.0 min
[4] = target: T2, Coagulation factor VII (Homo sapiens) (UniProt P08709); assay: Inhibition of factor 7a (unknown origin) at IC50 using pefachrome factor VIIa as substrate preincubated for 1 min followed by chromogenic substrate addition and measured for 2 mins in presence of AT-III; settings: time 3.0 min
T2 sequence (whole entry): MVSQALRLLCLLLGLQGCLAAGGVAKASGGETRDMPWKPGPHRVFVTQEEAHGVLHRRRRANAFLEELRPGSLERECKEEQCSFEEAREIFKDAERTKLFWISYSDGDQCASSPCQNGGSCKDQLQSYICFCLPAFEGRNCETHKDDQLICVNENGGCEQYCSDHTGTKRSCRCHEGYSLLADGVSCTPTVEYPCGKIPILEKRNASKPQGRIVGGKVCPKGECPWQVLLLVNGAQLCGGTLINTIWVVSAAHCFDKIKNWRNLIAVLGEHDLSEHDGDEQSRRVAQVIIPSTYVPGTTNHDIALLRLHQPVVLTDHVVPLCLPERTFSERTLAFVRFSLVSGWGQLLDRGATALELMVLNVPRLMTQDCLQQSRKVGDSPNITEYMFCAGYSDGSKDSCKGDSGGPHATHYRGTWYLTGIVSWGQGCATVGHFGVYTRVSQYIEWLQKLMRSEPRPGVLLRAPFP

[5] = target: T3, Coagulation factor IX/VIII (Homo sapiens) (UniProt P00740+P00451); assay: (§1) Inhibition of human citrated plasma iXase (factor 8a-factor 9a complex) preincubated for 2 mins followed by factor 10 addition and measured after 1 min by FXa chromogenic substrate SXa-11 based assay relative to dHG-5; format: protein-complex assay; settings: time 3.0 min
[6] = target: Coagulation factor X (Homo sapiens) (UniProt P00742); assay: Inhibition of factor 10a (unknown origin) at IC50 preincubated for 1 min followed by chromogenic substrate addition and measured for 2 mins in presence of AT-III; settings: time 3.0 min
Sequence of Coagulation factor X (Homo sapiens) (P00742 41-179 limits assumed): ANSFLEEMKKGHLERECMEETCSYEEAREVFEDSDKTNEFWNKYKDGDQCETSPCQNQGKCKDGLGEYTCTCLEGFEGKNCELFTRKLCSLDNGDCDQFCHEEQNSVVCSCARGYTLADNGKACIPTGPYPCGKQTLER
Sequence of Coagulation factor X (Homo sapiens) (P00742 235-488 limits assumed): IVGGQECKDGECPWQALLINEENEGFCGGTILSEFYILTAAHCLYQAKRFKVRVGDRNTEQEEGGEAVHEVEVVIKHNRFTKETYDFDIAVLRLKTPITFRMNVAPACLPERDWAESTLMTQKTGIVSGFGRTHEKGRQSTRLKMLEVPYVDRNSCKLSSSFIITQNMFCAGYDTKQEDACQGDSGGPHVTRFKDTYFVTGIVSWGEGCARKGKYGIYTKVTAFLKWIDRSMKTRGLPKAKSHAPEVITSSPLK

Rattus norvegicus [7] = assay: (§2) Antithrombotic activity in thromboplastin and stasis-induced Sprague-Dawley rat deep venous thrombosis model assessed as reduction in venous thrombosis at 1.84 mg/kg, sc administered 1 hr prior to thromboplastin addition for 20 secs followed by establishment of stasis for 20 mins relative to dHG-5; format: functional; settings: time 80.33 min, 1.339 h
[8] = target: Coagulation factor X (Homo sapiens) (UniProt P00742); assay: Inhibition of factor 10a (unknown origin) at IC90 preincubated for 1 min followed by chromogenic substrate addition and measured for 2 mins in presence of AT-III relative to control; settings: time 3.0 min
[9] = target: T4, Coagulation factor XII (Homo sapiens) (UniProt P00748); assay: Inhibition of factor 12a (unknown origin) at IC50 using kallikrein chromogenic substrate preincubated for 1 min followed by chromogenic substrate addition and measured for 2 mins in presence of AT-III; settings: time 3.0 min
T4 sequence (whole entry): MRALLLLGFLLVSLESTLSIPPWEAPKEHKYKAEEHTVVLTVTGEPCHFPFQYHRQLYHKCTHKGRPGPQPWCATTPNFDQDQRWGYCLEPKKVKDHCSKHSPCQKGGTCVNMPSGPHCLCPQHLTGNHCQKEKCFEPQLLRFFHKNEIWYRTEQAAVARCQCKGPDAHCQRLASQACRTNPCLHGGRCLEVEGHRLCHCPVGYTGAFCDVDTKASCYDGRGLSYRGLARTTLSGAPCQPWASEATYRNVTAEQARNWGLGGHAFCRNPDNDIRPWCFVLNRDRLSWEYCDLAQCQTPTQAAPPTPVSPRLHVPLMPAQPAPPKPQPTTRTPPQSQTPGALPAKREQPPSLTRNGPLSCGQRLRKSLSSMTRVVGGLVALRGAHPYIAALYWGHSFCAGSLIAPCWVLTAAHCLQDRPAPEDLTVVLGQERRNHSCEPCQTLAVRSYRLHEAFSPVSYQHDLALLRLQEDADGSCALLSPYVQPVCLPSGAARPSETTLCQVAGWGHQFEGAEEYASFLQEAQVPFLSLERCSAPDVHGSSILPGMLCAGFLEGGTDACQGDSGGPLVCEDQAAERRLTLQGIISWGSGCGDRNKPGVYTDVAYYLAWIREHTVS

[10] = target: Coagulation factor XI (Homo sapiens) (UniProt P03951); assay: Inhibition of factor 11a (unknown origin) at IC50 using S-2366 as substrate preincubated for 1 min followed by chromogenic substrate addition and measured for 2 mins in presence of AT-III; settings: time 3.0 min
Coagulation factor IX [11] = target: T1, Coagulation factor IX; assay: Inhibition of factor 9a (unknown origin) binding to immobilized biotinylated oHG-11 assessed as activity potency of oligosaccharides multiplied by the percentage of oligosaccharides in dHG-5 by biolayer interferometry relative to dHG-5
[12] = target: T4, Coagulation factor XII (Homo sapiens); assay: Inhibition of factor 12a (unknown origin) at IC50 using kallikrein chromogenic substrate preincubated for 1 min followed by chromogenic substrate addition and measured for 2 mins; settings: time 3.0 min
Rattus norvegicus [13] = assay: as §2, with “venous thrombosis by measuring activity potency of oligosaccharides multiplied by the percentage of oligosaccharides in dHG-5 at 1.84” for “venous thrombosis at 1.84”; format: functional; settings: time 80.33 min, 1.339 h
Plasma [14] = assay: Anticoagulation activity in human plasma assessed as drug level causing 20 times doubling of APTT by measuring activity potency of oligosaccharides multiplied by the percentage of oligosaccharides in dHG-5 preincubated for 2 mins followed by APTT reagent and measured after 3 mins by coagulometric method relative to dHG-5; format: functional; settings: time 5 min
[15] = target: Coagulation factor X (Homo sapiens) (UniProt P00742); assay: Inhibition of factor 10a (unknown origin) at IC50 preincubated for 1 min followed by chromogenic substrate addition and measured for 2 mins; settings: time 3.0 min
[16] = target: Prothrombin (Homo sapiens) (UniProt P00734); assay: Inhibition of factor 2a (unknown origin) at IC50 preincubated for 1 min followed by chromogenic substrate addition and measured for 2 mins; settings: time 3.0 min
[17] = target: Coagulation factor XI (Homo sapiens) (UniProt P03951); assay: Inhibition of factor 11a (unknown origin) at IC90 using S-2366 as substrate preincubated for 1 min followed by chromogenic substrate addition and measured for 2 mins in presence of AT-III; settings: time 3.0 min
[18] = target: T3, Coagulation factor IX/VIII (Homo sapiens); assay: as §1, with “complex) assessed as activity potency of oligosaccharides multiplied by the percentage of oligosaccharides in dHG-5” for “complex)”; format: protein-complex assay; settings: time 3.0 min
[19] = target: T2, Coagulation factor VII (Homo sapiens); assay: Inhibition of factor 7a (unknown origin) at IC50 using pefachrome factor VIIa as substrate preincubated for 1 min followed by chromogenic substrate addition and measured for 2 mins; settings: time 3.0 min
[20] = target: Prothrombin (Homo sapiens) (UniProt P00734); assay: Inhibition of factor 2a (unknown origin) at IC90 preincubated for 1 min followed by chromogenic substrate addition and measured for 2 mins in presence of AT-III; settings: time 3.0 min
Plasma [21] = assay: Anticoagulation activity in human plasma assessed as drug level causing 20 times doubling of APTT preincubated for 2 mins followed by APTT reagent and measured after 3 mins by coagulometric method relative to dHG-5; format: functional; settings: time 5 min

Row | inhibition [1] | Ratio (Coagulation factor IX [2]) | inhibition [3] | inhibition [4] | Ratio [5] | inhibition [6] | inhibition [8] | inhibition [9] | inhibition [10] | Ratio (Coagulation factor IX [11]) | inhibition [12] | inhibition [15] | inhibition [16] | inhibition [17] | Ratio [18] | inhibition (active/not active) [19] | inhibition [20] | SMILES | Ratio (Rattus norvegicus [7]) | Ratio (Rattus norvegicus [13]) | Ratio (Plasma [14]) | also measured
1 | inactive | 116 U | inactive | inactive | 217 U | inactive | inactive | inactive | inactive | 13.1 U | inactive | inactive | inactive | Active | 24.4 U | inactive | Active | CC(=O)N[C@H]1[C@H](O[C@@H]([C@H](O[C@@H]2O[C@@H](C)[C@@H](OS(=O)(=O)[O-])[C@@H](OS(=O)(=O)O)[C@@H]2O)[C@@H](O)CO)[C@H](O)C(=O)[O-])O[C@H](COS(=O)(=O)[O-])[C@H](OS(=O)(=O)[O-])[C@@H]1O[C@@H]1O[C@H](C(=O)[O-])[C@@H](O[C@@H]2O[C@H](COS(=O)(=O)[O-])[C@H](OS(=O)(=O)[O-])[C@H](O[C@@H]3O[C@H](C(=O)[O-])[C@@H](O[C@@H]4O[C@H](COS(=O)(=O)[O-])[C@H](OS(=O)(=O)[O-])[C@H](O[C@@H]5O[C@H](C(=O)[O-])[C@@H](O[C@@H]6O[C@H](COS(=O)(=O)[O-])[C@H](OS(=O)(=O)[O-])[C@H](O[C@@H]7O[C@H](C(=O)[O-])[C@@H](O[C@@H]8O[C@H](COS(=O)(=O)[O-])[C@H](OS(=O)(=O)[O-])[C@H](O[C@@H]9O[C@H](C(=O)[O-])[C@@H](O[C@@H]%10O[C@H](COS(=O)(=O)[O-])[C@H](OS(=O)(=O)[O-])[C@H](O[C@@H]%11OC(C(=O)[O-])=C[C@H](O[C@@H]%12O[C@@H](C)[C@@H](OS(=O)(=O)[O-])[C@@H](OS(=O)(=O)O)[C@@H]%12O)[C@H]%11O)[C@H]%10NC(C)=O)[C@H](O[C@@H]%10O[C@@H](C)[C@@H](OS(=O)(=O)[O-])[C@@H](OS(=O)(=O)O)[C@@H]%10O)[C@H]9O)[C@H]8NC(C)=O)[C@H](O[C@@H]8O[C@@H](C)[C@@H](OS(=O)(=O)[O-])[C@@H](OS(=O)(=O)O)[C@@H]8O)[C@H]7O)[C@H]6NC(C)=O)[C@H](O[C@@H]6O[C@@H](C)[C@@H](OS(=O)(=O)[O-])[C@@H](OS(=O)(=O)O)[C@@H]6O)[C@H]5O)[C@H]4NC(C)=O)[C@H](O[C@@H]4O[C@@H](C)[C@@H](OS(=O)(=O)[O-])[C@@H](OS(=O)(=O)O)[C@@H]4O)[C@H]3O)[C@H]2NC(C)=O)[C@H](O[C@@H]2O[C@@H](C)[C@@H](OS(=O)(=O)[O-])[C@@H](OS(=O)(=O)O)[C@@H]2O)[C@H]1O.[Na+].[Na+].[Na+].[Na+].[Na+].[Na+].[Na+].[Na+].[Na+].[Na+].[Na+].[Na+].[Na+].[Na+].[Na+].[Na+].[Na+].[Na+].[Na+].[Na+].[Na+].[Na+].[Na+].[Na+].[Na+].[Na+] | 213.7 U | 23.93 U | 22.82 U | Ratio (Plasma [21]): 203.41 U
2 | inactive | 177 U | inactive | inactive | 384 U | inactive | inactive | inactive | inactive | 11.7 U | inactive | inactive | inactive | Active | 25.4 U | inactive | Active | CC(=O)N[C@H]1[C@H](O[C@@H]([C@H](O[C@@H]2O[C@@H](C)[C@@H](OS(=O)(=O)[O-])[C@@H](OS(=O)(=O)O)[C@@H]2O)[C@@H](O)CO)[C@H](O)C(=O)[O-])O[C@H](COS(=O)(=O)[O-])[C@H](OS(=O)(=O)[O-])[C@@H]1O[C@@H]1O[C@H](C(=O)[O-])[C@@H](O[C@@H]2O[C@H](COS(=O)(=O)[O-])[C@H](OS(=O)(=O)[O-])[C@H](O[C@@H]3O[C@H](C(=O)[O-])[C@@H](O[C@@H]4O[C@H](COS(=O)(=O)[O-])[C@H](OS(=O)(=O)[O-])[C@H](O[C@@H]5O[C@H](C(=O)[O-])[C@@H](O[C@@H]6O[C@H](COS(=O)(=O)[O-])[C@H](OS(=O)(=O)[O-])[C@H](O[C@@H]7O[C@H](C(=O)[O-])[C@@H](O[C@@H]8O[C@H](COS(=O)(=O)[O-])[C@H](OS(=O)(=O)[O-])[C@H](O[C@@H]9O[C@H](C(=O)[O-])[C@@H](O[C@@H]%10O[C@H](COS(=O)(=O)[O-])[C@H](OS(=O)(=O)[O-])[C@H](O[C@@H]%11O[C@H](C(=O)[O-])[C@@H](O[C@@H]%12O[C@H](COS(=O)(=O)[O-])[C@H](OS(=O)(=O)[O-])[C@H](O[C@@H]%13OC(C(=O)O)=C[C@H](O[C@@H]%14O[C@@H](C)[C@@H](OS(=O)(=O)[O-])[C@@H](OS(=O)(=O)O)[C@@H]%14O)[C@H]%13O)[C@H]%12NC(C)=O)[C@H](O[C@@H]%12O[C@@H](C)[C@@H](OS(=O)(=O)[O-])[C@@H](OS(=O)(=O)O)[C@@H]%12O)[C@H]%11O)[C@H]%10NC(C)=O)[C@H](O[C@@H]%10O[C@@H](C)[C@@H](OS(=O)(=O)[O-])[C@@H](OS(=O)(=O)O)[C@@H]%10O)[C@H]9O)[C@H]8NC(C)=O)[C@H](O[C@@H]8O[C@@H](C)[C@@H](OS(=O)(=O)[O-])[C@@H](OS(=O)(=O)O)[C@@H]8O)[C@H]7O)[C@H]6NC(C)=O)[C@H](O[C@@H]6O[C@@H](C)[C@@H](OS(=O)(=O)[O-])[C@@H](OS(=O)(=O)O)[C@@H]6O)[C@H]5O)[C@H]4NC(C)=O)[C@H](O[C@@H]4O[C@@H](C)[C@@H](OS(=O)(=O)[O-])[C@@H](OS(=O)(=O)O)[C@@H]4O)[C@H]3O)[C@H]2NC(C)=O)[C@H](O[C@@H]2O[C@@H](C)[C@@H](OS(=O)(=O)[O-])[C@@H](OS(=O)(=O)O)[C@@H]2O)[C@H]1O.[Na+].[Na+].[Na+].[Na+].[Na+].[Na+].[Na+].[Na+].[Na+].[Na+].[Na+].[Na+].[Na+].[Na+].[Na+].[Na+].[Na+].[Na+].[Na+].[Na+].[Na+].[Na+].[Na+].[Na+].[Na+].[Na+].[Na+].[Na+].[Na+] | 244.26 U | 16.12 U | 15.39 U | Ratio (Plasma [21]): 232.47 U
